Reference: patent publication US20230128304A1, “BENZIMIDAZOLE COMPOUND FOR THE TREATMENT OF METABOLIC DISORDERS” (ACHÉ LABORATÓRIOS FARMACÊUTICOS S.A., priority 2020, published 2023)

Key:
MT1 receptor = MT1 receptor (Homo sapiens, UniProt P48039); assay: cell-based; conditions: read-out: MT1 agonism I.A. (intrinsic activity)
[1] = test system: SD rats maintained on a high fat diet (HFD); assay: Body weight and food intake in HFD diet-induced obesity model; assay type: in vivo, Sprague Dawley (SD) rats; conditions: for Daily food intake compared with HFD Vehicle: compound II apart from isolated changes
Experimental: The benzimidazole compound of formula I, the comparative compound of formula II, and dapagliflozin were administered to animals fed HFD. Vehicle was administered to animals fed normal chow or HFD. Data is shown as adjusted means—SEM of n=9-10 animals (BW and BW gain) or n=5 cages (FI and average daily FI) per group. Data was analyzed by ANCOVA with BW on day 1 (A and C) or average FI during the baseline period (B and D) as covariate, excluding the Chow Vehicle group. Treatment groups were compared with HFD Vehicle by separate Williams' tests (compounds I or II) or multiple t tests (dapagliflozin) and considered statistically significant if p<0.05. Statistical significance is denoted as “a”, “b”, “c”, “d” and “e” for HFD groups treated respectively with dapagliflozin, compound II at 10 mg/kg, compound II at 30 mg/kg, compound I at 10 mg/kg and compound I at 30 mg/kg. # (p=0.051) and & (p=0.098) mean trends toward significance in comparisons with HFD Vehicle.
J Endocrinol. 234(3):255-267; Devenny J J et al. (2012). Weight loss induced by chronic dapagliflozin treatment is attenuated by compensatory hyperphagia in diet-induced obese (DIO) rats. Obesity. 20: 1645-1652.).
(§1) In the HFD model, animals were initially maintained on a HFD for 4 weeks to induce a significant body weight (BW) gain before treatment was initiated. […] Two vehicle-treated control groups, fed either normal chow (Chow Vehicle) or HFD (HFD Vehicle), were also included.

[2] = test system: SD rats maintained on a high fat diet (HFD); assay: Plasma glucose, insulin and HOMA-IR in HFD model; assay type: in vivo, Sprague Dawley (SD) rats
Experimental: as §1, with “Vehicle was administered to animals fed normal chow or HFD. The parameters were assessed on day 51. […] In” for “In”

[3] = test system: SD rats maintained on a high fat diet (HFD); assay: Body composition (FoodScan near-infrared analyzer) in HFD model; assay type: in vivo, Sprague Dawley (SD) rats; conditions: for Fat / Final carcass weight / Protein / Water: adjusted means ± SEM; for Body composition parameters (water, protein, fat content, final carcass weight) against HFD Vehicle: 10 and 30 mg/kg
Experimental: as §1
The effects on body composition and on the weight of selected tissues (brown fat pad, epididymal fat pad, liver or gastrocnemius muscle) were assessed after the study was terminated (days 65/66). The weights of tissues were analyzed in two ways: i) BW on day 1 was used as a covariate to correct for differences in the BW at the start of the study or ii) the terminal BW (days 65/66) was used as a covariate to correct for changes due to weight loss (Table 3). […] Body composition was determined using FoodScan™ near-infrared analyzer analysis, which assessed water, protein and fat content and the final carcass weight (Table 4).

[4] = test system: SD rats maintained on a high fat diet (HFD); assay: Weight of selected tissues in HFD model; assay type: in vivo, Sprague Dawley (SD) rats
Experimental: In the HFD model, animals were initially maintained on a HFD for 4 weeks to induce a significant body weight (BW) gain before treatment was initiated. […] Two vehicle-treated control groups, fed either normal chow (Chow Vehicle) or HFD (HFD Vehicle), were also included. The effects on body composition and on the weight of selected tissues (brown fat pad, epididymal fat pad, liver or gastrocnemius muscle) were assessed after the study was terminated (days 65/66). […] Body composition was determined using FoodScan™ near-infrared analyzer analysis, which assessed water, protein and fat content and the final carcass weight (Table 4).

[5] = test system: SD rats maintained on a high fat diet (HFD); assay: Liver triglycerides and glycogen in HFD model; assay type: in vivo, Sprague Dawley (SD) rats; conditions: 5 mg/kg
Experimental: The parameters were assessed following a chronic oral treatment with compound I at 10 and 30 mg/kg, dapagliflozin at 5 mg/kg, or vehicle to animals receiving HFD. Vehicle was also administered to animals receiving normal chow. The liver triglycerides were quantified using Cobas C111 clinical analyzer TRIGL 04657594 190. Glycogen quantification in liver samples was performed using commercial kits (Thermo BioVision, Glycogen Assay Kit, K646-100). Data is shown as means±SEM (A-D) or raw data including mean±SEM (E-H), n=9-10. The statistical analysis of liver triglycerides (A-B) and glycogen (C-D) was performed by general linear model of log transformed data (triglycerides only) with treatment and cohort as factors and termination order and BW on day 1 as covariates. Treatment groups were compared with HFD Vehicle by separate Williams' tests (compound I) or multiple t tests (dapagliflozin) and statistically significant differences are denoted by * (p<0.05), ** (p<0.01) and *** (p<0.001). […]
As only the benzimidazole derivative of formula I according to the present invention, but not the comparative benzimidazole compound II, impacted BW gain, liver weight, plasma glucose levels and HOMA-IR in the HFD model, specific effects of compound I in the liver of the animals were evaluated in comparison with dapagliflozin and control groups. […]

[6] = test system: SD rats maintained on a high fat diet (HFD); assay: Liver histopathology (NAFLD activity score) in HFD model; assay type: in vivo, Sprague Dawley (SD) rats
Experimental: The parameters were assessed following a chronic oral treatment with compound I at 10 and 30 mg/kg, dapagliflozin at 5 mg/kg, or vehicle to animals receiving HFD. Vehicle was also administered to animals receiving normal chow. The liver triglycerides were quantified using Cobas C111 clinical analyzer TRIGL 04657594 190. Glycogen quantification in liver samples was performed using commercial kits (Thermo BioVision, Glycogen Assay Kit, K646-100). Data is shown as means±SEM (A-D) or raw data including mean±SEM (E-H), n=9-10. The statistical analysis of liver triglycerides (A-B) and glycogen (C-D) was performed by general linear model of log transformed data (triglycerides only) with treatment and cohort as factors and termination order and BW on day 1 as covariates. Treatment groups were compared with HFD Vehicle by separate Williams' tests (compound I) or multiple t tests (dapagliflozin) and statistically significant differences are denoted by * (p<0.05), ** (p<0.01) and *** (p<0.001). Comparisons against Chow Vehicle were performed by multiple t tests (HFD Vehicle and dapagliflozin groups) or Dunnett's test (compound I) and statistically significant differences are denoted by † (p<0.05), †† (p<0.01) and ††† (p<0.001). Analysis of liver histopathology data (E-H) was done by exact Wilcoxon rank sum test. Statistical differences are denoted by * (p<0.05) in comparison with HFD Vehicle and by † (p<0.05), †† (p<0.01) and ††† (p<0.001) when compared with Chow Vehicle.
as §1
Liver was also assessed for NAFLD by histopathological analysis (FIGS. 3E-H). Samples were sectioned, stained and scored following a method previously described (Kleiner D E et al. (2005). Design and validation of a histological scoring system for nonalcoholic fatty liver disease. Hepatology. 41(6):1313-21; Nishida T et al. (2013). Spontaneous onset of nonalcoholic steatohepatitis and hepatocellular carcinoma in a mouse model of metabolic syndrome. Lab Invest. 93(2):230-41). The parameters analyzed were: steatosis (0-3), lobular inflammation (0-3) and hepatocellular ballooning (0-2). The total “NAFLD activity score” (NAS) score was calculated as the sum of all parameters (0-8). The liver of Chow Vehicle animals had no pathology scores (zero) for steatosis, lobular inflammation, hepatocellular ballooning and no score for total NAS.

[7] = 5 mg/kg p.o., day 51 after 4-hour fast, p<0.001
[8] = 5 mg/kg, data adjusted for BW on day 1, mean ± SEM, in g (unit assumed)
[9] = 5 mg/kg, data adjusted for BW on day 65/66, mean ± SEM, in g (unit assumed)
[10] = 10 mg/kg, data adjusted for BW on day 1, mean ± SEM, in g (unit assumed)
[11] = 10 mg/kg, data adjusted for BW on day 65/66, mean ± SEM, in g (unit assumed)
[12] = 30 mg/kg, data adjusted for BW on day 1, mean ± SEM, in g (unit assumed)
[13] = 30 mg/kg, data adjusted for BW on day 65/66, mean ± SEM, in g (unit assumed)

Sequence of MT1 receptor (P48039 whole entry): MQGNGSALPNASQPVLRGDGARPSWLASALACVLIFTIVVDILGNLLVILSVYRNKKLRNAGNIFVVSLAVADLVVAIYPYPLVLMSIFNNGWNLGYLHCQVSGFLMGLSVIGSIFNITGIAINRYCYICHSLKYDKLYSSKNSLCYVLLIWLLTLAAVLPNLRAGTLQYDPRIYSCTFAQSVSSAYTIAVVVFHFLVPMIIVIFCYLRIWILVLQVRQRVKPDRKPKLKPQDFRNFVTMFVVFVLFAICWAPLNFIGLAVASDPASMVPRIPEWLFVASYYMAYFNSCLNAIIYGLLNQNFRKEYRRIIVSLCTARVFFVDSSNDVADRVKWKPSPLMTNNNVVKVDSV

SMILES: COc1ccc2[nH]cc(CCNC(C)=O)c2c1 [Melatonin, N-acetyl-5-methoxytryptamine]
- Emax (MT1 receptor): 100%

SMILES: CCOc1nc2cc(Cl)c(OC)cc2n1CCCNC(C)=O [Compound of formula II, N-[3-(5-Chloro-2-ethoxy-6-methoxy-benzoimidazol-1-yl)-propyl]-acetamide]
- Daily BW gain ([1]; 10 and 30 mg/kg): no significant effects
- Daily food intake compared with HFD Vehicle ([1]; 10 and 30 mg/kg): did not affect
- HOMA-IR compared to HFD Vehicle (in words) ([2]; 10 and 30 mg/kg, day 51): did not alter
- Plasma glucose compared to HFD Vehicle (in words) ([2]; 10 and 30 mg/kg, day 51): did not alter
- Plasma insulin compared to HFD Vehicle (in words) ([2]; 10 and 30 mg/kg, day 51): did not alter
- Fat ([3]; 10 mg/kg): 20.8 ± 2.3 %
- Final carcass weight ([3]; 10 mg/kg): 587.6 ± 6.3 g
- Protein ([3]; 10 mg/kg): 19.2 ± 0.6 %
- Water ([3]; 10 mg/kg): 56.0 ± 1.8 %
- Fat ([3]; 30 mg/kg): 17.9 ± 2.3 %
- Final carcass weight ([3]; 30 mg/kg): 593.3 ± 11.4 g
- Protein ([3]; 30 mg/kg): 19.8 ± 0.5%
- Water ([3]; 30 mg/kg): 58.4 ± 1.9^ %
- Body composition parameters (water, protein, fat content, final carcass weight) against HFD Vehicle [3]: No effect

SMILES: CCOc1ccc(Cc2cc([C@@H]3O[C@H](CO)[C@@H](O)[C@H](O)[C@H]3O)ccc2Cl)cc1 [Dapagliflozin]
- HOMA-IR change compared to HFD Vehicle [2, 7]: −66.7%
- Plasma glucose change compared to HFD Vehicle [2, 7]: −21.6%
- Plasma insulin change compared to HFD Vehicle [2, 7]: −56.7%
- Brown adipose tissue weight [4, 8]: 0.679 ± 0.047
- Epididymal fat pads weight [4, 8]: 12.2 ± 0.7
- Gastrocnemius weight [4, 8]: 3.34 ± 0.09
- Liver weight [4, 8]: 20.9 ± 0.5
- Liver weight ([4]; 5 mg/kg, data adjusted for BW on day 65/66, mean ± SEM): 21.6 ± 0.3
- Brown adipose tissue weight [4, 9]: 0.697 ± 0.050
- Epididymal fat pads weight [4, 9]: 13.0 ± 0.7
- Gastrocnemius weight [4, 9]: 3.37 ± 0.09
- Liver weight change compared to HFD Vehicle ([4]; 5 mg/kg, data corrected for the terminal BW, p<0.01): +10.8%
- Fat ([3]; 5 mg/kg): 16.8 ± 1.3^ %
- Final carcass weight ([3]; 5 mg/kg): 564.5 ± 9.4 g
- Protein ([3]; 5 mg/kg): 20.6 ± 0.4%
- Water ([3]; 5 mg/kg): 58.9 ± 1.0^ %
- Liver glycogen concentration compared to HFD Vehicle (in words) [5]: No effect
- Liver glycogen content compared to HFD Vehicle (in words) [5]: No effect
- Histopathology parameters (steatosis, lobular inflammation, hepatocellular ballooning, NAS) versus HFD Vehicle ([6]; 5 mg/kg): no effect

SMILES: COc1cc2c(cc1Cl)nc(OC)n2CCNC(C)=O [Compound of formula I, N-[2-(5-Chloro-2,6-dimethoxy-benzoimidazol-1-yl)-ethyl]-acetamide]
- Body weight (BW) compared with HFD Vehicle ([1]; 10 and 30 mg/kg p.o., days 13 to 32, p<0.05): significantly reduced body weight (BW)
- BW gain from day 1 to 57 compared with HFD Vehicle ([1]; 10 and 30 mg/kg p.o., p=0.098): trend towards reduced BW gain
- Daily food intake compared with HFD Vehicle ([1]; 10 and 30 mg/kg): did not affect
- Liver weight ([4]; 10 mg/kg, data adjusted for BW on day 1, mean ± SEM): 17.7 ± 0.8
- Brown adipose tissue weight [4, 10]: 0.700 ± 0.091
- Epididymal fat pads weight [4, 10]: 13.1 ± 1.5
- Gastrocnemius weight [4, 10]: 3.30 ± 0.14
- Brown adipose tissue weight [4, 11]: 0.719 ± 0.084
- Epididymal fat pads weight [4, 11]: 13.9 ± 1.1
- Gastrocnemius weight [4, 11]: 3.32 ± 0.15
- Liver weight [4, 11]: 18.5 ± 0.5
- Liver weight ([4]; 30 mg/kg, data adjusted for BW on day 1, mean ± SEM): 18.6 ± 0.9
- Brown adipose tissue weight [4, 12]: 0.801 ± 0.066
- Epididymal fat pads weight [4, 12]: 13.9 ± 1.0
- Gastrocnemius weight [4, 12]: 3.35 ± 0.10
- Brown adipose tissue weight [4, 13]: 0.808 ± 0.062
- Epididymal fat pads weight [4, 13]: 14.2 ± 1.2
- Gastrocnemius weight [4, 13]: 3.36 ± 0.10
- Liver weight [4, 13]: 18.9 ± 0.5
- Liver weight compared to HFD Vehicle (in words) ([4]; both groups (10 and 30 mg/kg), corrected by the initial BW, p=0.12): trend toward liver weight reduction
- Fat ([3]; 10 mg/kg): 20.5 ± 1.5 %
- Final carcass weight ([3]; 10 mg/kg): 561.7 ± 13.0^ g
- Protein ([3]; 10 mg/kg): 19.7 ± 0.4%
- Water ([3]; 10 mg/kg): 56.1 ± 1.2 %
- Fat ([3]; 30 mg/kg): 20.0 ± 1.7 %
- Final carcass weight ([3]; 30 mg/kg): 584.0 ± 13.6^ g
- Protein ([3]; 30 mg/kg): 19.6 ± 0.5 %
- Water ([3]; 30 mg/kg): 56.5 ± 1.4 %
- Body composition parameters (water, protein, fat content, final carcass weight) against HFD Vehicle [3]: No effect
- Steatosis score change compared to the HFD group ([6]; 30 mg/kg p.o., p<0.05): −57%
- Total NAS value versus HFD Vehicle ([6]; 30 mg/kg, p=0.126): trend toward significance
- Lobular inflammation score ([6]; 30 mg/kg, no longer significantly different from the Chow Vehicle control): reduced
